# Where “and” joins values, the source holds several entries; their conditions need not be identical. Equal values may be shown once. Read-outs that look alike come from different tables or passages of the source.
# Legend:
# CYP2C9 = CYP2C9 (Homo sapiens, UniProt P11712); test: CYP2C9 inhibition in upcyte hepatocytes over 24 h; assay type: in vitro ADME; settings: probe tolbutamide (5 μmol/L), percentage inhibition, CYP2C9, OH-Tolb, 1 mmol/L ABT, Lab 2
# CYP2B6 [1] = biological target: T1, CYP2B6 (Homo sapiens, UniProt P20813); test: in vitro; settings: hepatocytes, percentage inhibition, CYP2B6, OH-Bup, 1 mmol/L ABT, Lab 2
# T1 sequence (P20813 1-491): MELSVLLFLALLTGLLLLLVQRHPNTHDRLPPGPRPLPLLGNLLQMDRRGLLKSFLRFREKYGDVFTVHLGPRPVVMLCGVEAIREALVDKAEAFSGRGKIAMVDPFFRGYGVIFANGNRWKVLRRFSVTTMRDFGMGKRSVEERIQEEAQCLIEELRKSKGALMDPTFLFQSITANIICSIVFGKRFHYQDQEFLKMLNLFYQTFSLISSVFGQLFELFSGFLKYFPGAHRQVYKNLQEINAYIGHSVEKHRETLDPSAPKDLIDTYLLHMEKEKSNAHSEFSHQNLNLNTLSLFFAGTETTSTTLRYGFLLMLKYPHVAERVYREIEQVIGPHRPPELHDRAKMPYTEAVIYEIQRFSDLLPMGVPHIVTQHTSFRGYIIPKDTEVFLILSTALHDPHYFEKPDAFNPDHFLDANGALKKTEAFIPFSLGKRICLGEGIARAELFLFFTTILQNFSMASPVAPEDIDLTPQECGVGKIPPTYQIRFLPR
# CYP1A2 [2] = biological target: T2, CYP1A2 (Homo sapiens, UniProt P05177); test: CYP1A2 inhibition in upcyte hepatocytes over 24 h; assay type: in vitro ADME; settings: probe phenacetin (5 μmol/L), percentage inhibition, CYP1A2, APAP, 1 mmol/L ABT, Lab 2
# T2 sequence (P05177 1-516): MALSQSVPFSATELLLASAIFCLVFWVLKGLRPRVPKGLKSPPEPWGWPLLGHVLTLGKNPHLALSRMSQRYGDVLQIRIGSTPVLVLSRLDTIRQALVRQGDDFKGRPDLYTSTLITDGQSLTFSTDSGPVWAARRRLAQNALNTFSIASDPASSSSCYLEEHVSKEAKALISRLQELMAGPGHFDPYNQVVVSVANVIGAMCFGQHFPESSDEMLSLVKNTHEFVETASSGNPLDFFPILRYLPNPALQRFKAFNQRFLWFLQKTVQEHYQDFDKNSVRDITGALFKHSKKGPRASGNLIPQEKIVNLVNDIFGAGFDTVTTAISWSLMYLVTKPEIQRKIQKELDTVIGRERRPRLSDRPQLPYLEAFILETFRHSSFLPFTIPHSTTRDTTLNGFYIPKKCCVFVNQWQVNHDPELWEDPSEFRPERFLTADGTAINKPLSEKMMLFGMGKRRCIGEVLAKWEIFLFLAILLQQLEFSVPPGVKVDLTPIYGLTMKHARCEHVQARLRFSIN
# CYP3A4 [3] = biological target: CYP3A4 (Homo sapiens, UniProt P08684); test: in vitro; settings: upcyte hepatocytes, probe midazolam (5 μmol/L), percentage inhibition, CYP3A4, 1′OH-MID +1′OH-MID-G, 1 mmol/L ABT, Lab 2
# CYP2B6 [4] = settings: for CYP2B6 Indmax: mean from two experiments; for CYP2B6 % PB: relative to positive control phenobarbital, equation 2
# CYP3A4 [5] = settings: in vivo induction value used for the RIS calibration; cited from earlier work
# CYP1A2 [6] = test: CYP1A2 preinduction by omeprazole in upcyte hepatocytes; settings: daily 100 μmol/L omeprazole for 3 days
# CYP3A4 [7] = settings: for CYP3A4 % Rif: relative to positive control rifampicin, equation 2; for CYP3A4 Ind50: column headed Ind50 in Table 5; for CYP3A4 RIS: mean of two experiments
# [8] = upcyte Donor 10-03, mean from two experiments
# [9] = upcyte Donor 151-03, mean from two experiments
# [10] = upcyte Donor 653-03, mean from two experiments
# Chain of CYP2C9 (P11712 whole entry): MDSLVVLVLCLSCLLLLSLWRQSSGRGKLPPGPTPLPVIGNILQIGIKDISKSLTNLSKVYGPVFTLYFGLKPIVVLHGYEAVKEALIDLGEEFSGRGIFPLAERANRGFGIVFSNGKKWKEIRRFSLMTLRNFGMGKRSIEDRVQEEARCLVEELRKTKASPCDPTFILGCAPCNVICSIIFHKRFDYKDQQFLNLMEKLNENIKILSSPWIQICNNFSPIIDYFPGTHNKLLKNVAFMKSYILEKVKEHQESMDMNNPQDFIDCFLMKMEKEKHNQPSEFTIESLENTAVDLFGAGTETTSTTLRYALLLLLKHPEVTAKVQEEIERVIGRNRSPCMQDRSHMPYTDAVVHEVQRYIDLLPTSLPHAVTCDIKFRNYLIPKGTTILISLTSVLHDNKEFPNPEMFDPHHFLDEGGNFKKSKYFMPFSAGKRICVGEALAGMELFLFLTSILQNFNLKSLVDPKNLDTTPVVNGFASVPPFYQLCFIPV
# Chain of CYP3A4 (Homo sapiens, UniProt P08684) (P08684 whole entry): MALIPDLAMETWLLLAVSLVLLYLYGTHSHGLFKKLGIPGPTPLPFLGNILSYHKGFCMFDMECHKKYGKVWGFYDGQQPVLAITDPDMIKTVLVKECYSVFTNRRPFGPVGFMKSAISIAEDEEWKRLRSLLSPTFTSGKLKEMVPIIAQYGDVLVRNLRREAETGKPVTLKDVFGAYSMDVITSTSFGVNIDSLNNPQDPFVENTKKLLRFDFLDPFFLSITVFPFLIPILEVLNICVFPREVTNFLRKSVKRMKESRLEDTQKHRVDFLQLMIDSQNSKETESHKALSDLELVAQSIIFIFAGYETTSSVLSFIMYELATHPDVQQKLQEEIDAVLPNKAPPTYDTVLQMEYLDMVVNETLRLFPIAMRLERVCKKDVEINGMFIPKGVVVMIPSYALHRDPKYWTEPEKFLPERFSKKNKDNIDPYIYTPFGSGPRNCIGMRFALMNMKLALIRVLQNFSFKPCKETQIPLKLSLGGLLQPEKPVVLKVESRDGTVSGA
compound,measurement,setting,value
"Nn1nnc2ccccc21 [ABT, 1-aminobenzotriazole]",inhibition at 1 mmol/L,"CYP2C9; Donor 151-03, 0–6 h",100%
same,"inhibition at 24 h, 1 mmol/L","CYP2C9; Donor 151-03, 24 h",98%
same,inhibition at 1 mmol/L,"CYP2C9; Donor 422A-03, 0–6 h",100%
same,"inhibition at 24 h, 1 mmol/L","CYP2C9; Donor 422A-03, 24 h",100%
same,inhibition at 1 mmol/L,"CYP2C9; Donor 653-03, 0–6 h",95%
same,"inhibition at 24 h, 1 mmol/L","CYP2C9; Donor 653-03, 24 h",99%
same,inhibition at 1 mmol/L,"CYP2B6 [1]; Donor 151-03, 0–6 h",85%
same,"inhibition at 24 h, 1 mmol/L","CYP2B6 [1]; Donor 151-03, 24 h",94%
same,inhibition at 1 mmol/L,"CYP2B6 [1]; Donor 422A-03, 0–6 h",90%
same,"inhibition at 24 h, 1 mmol/L","CYP2B6 [1]; Donor 422A-03, 24 h",94%
same,inhibition at 1 mmol/L,"CYP2B6 [1]; Donor 653-03, 0–6 h",94%
same,"inhibition at 24 h, 1 mmol/L","CYP2B6 [1]; Donor 653-03, 24 h",97%
same,inhibition at 1 mmol/L,"CYP1A2 [2]; Donor 151-03, 0–6 h",100%
same,"inhibition at 24 h, 1 mmol/L","CYP1A2 [2]; Donor 151-03, 24 h",100%
same,inhibition at 1 mmol/L,"CYP1A2 [2]; Donor 422A-03, 0–6 h",100%
same,"inhibition at 24 h, 1 mmol/L","CYP1A2 [2]; Donor 422A-03, 24 h",98%
same,inhibition at 1 mmol/L,"CYP1A2 [2]; Donor 653-03, 0–6 h",95%
same,"inhibition at 24 h, 1 mmol/L","CYP1A2 [2]; Donor 653-03, 24 h",96%
same,inhibition at 1 mmol/L,"CYP3A4 [3]; Donor 151-03, 0–6 h",99%
same,"inhibition at 24 h, 1 mmol/L","CYP3A4 [3]; Donor 151-03, 24 h",97%
same,inhibition at 1 mmol/L,"CYP3A4 [3]; Donor 422A-03, 0–6 h",98%
same,"inhibition at 24 h, 1 mmol/L","CYP3A4 [3]; Donor 422A-03, 24 h",98%
same,inhibition at 1 mmol/L,"CYP3A4 [3]; Donor 653-03, 0–6 h",98%
same,"inhibition at 24 h, 1 mmol/L","CYP3A4 [3]; Donor 653-03, 24 h",98%
"COc1ccc2[nH]c([S+]([O-])Cc3ncc(C)c(OC)c3C)nc2c1 (centres unmarked) [Omeprazole, omeprazole]",CYP2B6 Indmax,CYP2B6 [4]; upcyte Donor 10-03,2.0 fold
same,CYP2B6 % PB,CYP2B6 [4]; upcyte Donor 10-03,31%
same,CYP2B6 Indmax,CYP2B6 [4]; upcyte Donor 151-03,No induction
same,CYP2B6 % PB,CYP2B6 [4]; upcyte Donor 151-03,No induction
same,CYP2B6 Indmax,CYP2B6 [4]; upcyte Donor 653-03,2.2 fold
same,CYP2B6 % PB,CYP2B6 [4]; upcyte Donor 653-03,56%
same,% Decrease in midazolam AUC,CYP3A4 [5],0%
same,induced CYP1A2 activity,CYP1A2 [6]; Donor 10-03,57.1 ± 17.1 pmol/min/mg protein
same,induced CYP1A2 activity,CYP1A2 [6]; Donor 151-03,83.8 ± 21.7 pmol/min/mg protein
same,induced CYP1A2 activity,CYP1A2 [6]; Donor 422A-03,205.0 ± 44.9 pmol/min/mg protein
same,CYP3A4 Indmax,CYP3A4 [7]; [8],2.3 fold
same,CYP3A4 % Rif,CYP3A4 [7]; upcyte Donor 10-03,4%
same,CYP3A4 Indmax,CYP3A4 [7]; [9],3.1 fold
same,CYP3A4 % Rif,CYP3A4 [7]; upcyte Donor 151-03,34%
same,CYP3A4 Ind50,CYP3A4 [7]; upcyte Donor 653-03,5
same,CYP3A4 Indmax,CYP3A4 [7]; [10],1.5 fold
"Cc1c(C)c2c(c(C)c1O)CCC(C)(COc1ccc(CC3SC(=O)NC3=O)cc1)O2 (centres unmarked) [Troglitazone, troglitazone]",CYP2B6 Indmax,CYP2B6 [4]; upcyte Donor 10-03,5.4 fold
same,CYP2B6 % PB,CYP2B6 [4]; upcyte Donor 10-03,150%
same,CYP2B6 Indmax,CYP2B6 [4]; upcyte Donor 151-03,2.1 fold
same,CYP2B6 % PB,CYP2B6 [4]; upcyte Donor 151-03,57%
same,CYP2B6 Indmax,CYP2B6 [4]; upcyte Donor 422A-03,5.0 fold
same,CYP2B6 % PB,CYP2B6 [4]; upcyte Donor 422A-03,63%
same,CYP2B6 Indmax,CYP2B6 [4]; upcyte Donor 653-03,2.3 fold
same,CYP2B6 % PB,CYP2B6 [4]; upcyte Donor 653-03,63%
same,% Decrease in midazolam AUC,CYP3A4 [5],67%
same,CYP3A4 Indmax,CYP3A4 [7]; [8],4.7 fold
same,CYP3A4 RIS,CYP3A4 [7]; upcyte Donor 10-03,0.083
same,CYP3A4 % Rif,CYP3A4 [7]; upcyte Donor 10-03,12%
same,CYP3A4 Indmax,"CYP3A4 [7]; upcyte Donor 10-03, values of two experiments",5.0 fold and 4.4 fold
same,CYP3A4 Indmax,CYP3A4 [7]; [9],1.8 fold
same,CYP3A4 RIS,CYP3A4 [7]; upcyte Donor 151-03,0.094
same,CYP3A4 % Rif,CYP3A4 [7]; upcyte Donor 151-03,13%
same,CYP3A4 Indmax,"CYP3A4 [7]; upcyte Donor 151-03, values of two experiments",2.3 fold and 1.3 fold
same,CYP3A4 Indmax,"CYP3A4 [7]; upcyte Donor 422A-03, mean from two experiments",2.7 fold
same,CYP3A4 RIS,CYP3A4 [7]; upcyte Donor 422A-03,1.030
same,CYP3A4 % Rif,CYP3A4 [7]; upcyte Donor 422A-03,15%
same,CYP3A4 Indmax,"CYP3A4 [7]; upcyte Donor 422A-03, values of two experiments",2.6 fold and 2.7 fold
same,CYP3A4 Ind50,CYP3A4 [7]; upcyte Donor 653-03,14
same,CYP3A4 Indmax,CYP3A4 [7]; [10],2.2 fold
same,CYP3A4 RIS,CYP3A4 [7]; upcyte Donor 653-03,0.466
same,CYP3A4 Indmax,"CYP3A4 [7]; upcyte Donor 653-03, values of two experiments",1.8 fold and 2.6 fold

# Reference: paper PMC4618636 (Pharmacology Research & Perspectives, 2015)
